For seven molecules, GI50 and TGI results are on record in PubChem BioAssay (NCI).

Molecules are shown by their SMILES. “And” between values parts separate entries of the source, which are not always exact repeats. Equal values may be shown once.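 Growth conditions: 96-well plates. Treatment: test compound, 48 hours, 5 concentrations. Analysis: linear interpolation between bracketing concentrations; unreached endpoints set to highest concentration. GI50 is the concentration that inhibits growth by half. TGI denotes the concentration required for complete inhibition of growth.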 Bounds are passed on as bounds.

Among the test systems are M14 melanoma; NCI-H226 lung; EKVX NSCLC; LOX IMVI melanoma; OVCAR-8 ovarian; SK-MEL-28 melanoma; NCI-H522 lung; BT-549 breast; NCI/ADR-RES ovarian; OVCAR-5 ovarian.
Test in all cases: NCI anticancer screen, dose series, 48 h

Turning to `CCOC(=O)c1c(C)c2c(n1C)CSc1cc(S(=O)(=O)c3ccccc3)c(=O)[nH]c1-2`, the GI50 with M14 melanoma is 27.9 µM; with NCI-H226 lung it was 23.9 µM; in the assay with EKVX NSCLC it was 14.6 µM; in the assay on LOX IMVI melanoma, 24.1 µM; in the assay with OVCAR-8 ovarian it was 36.7 µM; in the assay with SK-MEL-28 melanoma, 37.2 µM. The GI50 is 25.4 µM in the assay on NCI-H522 lung, 21.1 µM with BT-549 breast, 22.6 µM with NCI/ADR-RES ovarian and 45.6 µM in the assay with OVCAR-5 ovarian. The TGI with M14 melanoma was 77.7 µM; with NCI-H226 lung, above 100 µM; with EKVX NSCLC, 74.9 µM; with LOX IMVI melanoma it was above 100 µM; with OVCAR-8 ovarian, above 100 µM; with SK-MEL-28 melanoma, above 100 µM. For the same molecule, the TGI in the assay on NCI-H522 lung, with BT-549 breast, with NCI/ADR-RES ovarian and in the assay on OVCAR-5 ovarian was above 100 µM each time.

As to `O=C=Nc1ccc(Cc2ccc(N=C=O)cc2)cc1` (tested in a mixture with another compound), the GI50 in the assay with M14 melanoma, in the assay with NCI-H226 lung, in the assay on EKVX NSCLC, in the assay with LOX IMVI melanoma, in the assay with OVCAR-8 ovarian and with SK-MEL-28 melanoma was above 25 µg/mL each time. Besides, the GI50 in the assay on NCI-H522 lung, with BT-549 breast, with NCI/ADR-RES ovarian and with OVCAR-5 ovarian was above 25 µg/mL each time. In addition, the TGI in the assay with M14 melanoma, with NCI-H226 lung, with EKVX NSCLC, with LOX IMVI melanoma, in the assay with OVCAR-8 ovarian and in the assay on SK-MEL-28 melanoma was above 25 µg/mL throughout. The TGI in the assay with NCI-H522 lung, in the assay with BT-549 breast, with NCI/ADR-RES ovarian and with OVCAR-5 ovarian was above 25 µg/mL throughout.

Turning to `CC1=COC2=C(C)C(=O)C(=O)c3c(C)ccc1c32`, the TGI in the assay with M14 melanoma is 13.8 µM; with NCI-H226 lung it was 68.9 µM; with EKVX NSCLC it was 24.7 µM; in the assay with LOX IMVI melanoma, 16 µM; with OVCAR-8 ovarian, 12.4 µM; with SK-MEL-28 melanoma, above 100 µM. Besides, the TGI in the assay on NCI-H522 lung is 8.27 µM; with BT-549 breast, 38.3 µM; with NCI/ADR-RES ovarian it was 7.87 µM; in the assay with OVCAR-5 ovarian, 34.8 µM.

In the case of `COc1cc(/C=C2\C(=O)N(c3c(Cl)cccc3Cl)c3ccccc32)cc(OC)c1O`, the GI50 with M14 melanoma was 1.03 µM; in the assay with NCI-H226 lung it was 7.91 µM; in the assay with EKVX NSCLC it was 5.23 µM; in the assay on LOX IMVI melanoma, 0.303 µM; in the assay on OVCAR-8 ovarian, 0.442 µM; with SK-MEL-28 melanoma, 1.25 µM. For the same molecule, the GI50 is 0.501 µM with NCI-H522 lung, 3.2 µM in the assay with BT-549 breast, 0.793 µM in the assay with NCI/ADR-RES ovarian and 8.04 µM in the assay with OVCAR-5 ovarian. The TGI stood at 15.6 µM in the assay with M14 melanoma; 29 µM with NCI-H226 lung; 25.1 µM with EKVX NSCLC; 4.65 µM in the assay on LOX IMVI melanoma; 19.8 µM in the assay on OVCAR-8 ovarian; 13.5 µM in the assay on SK-MEL-28 melanoma. For the same molecule, the TGI in the assay with NCI-H522 lung turned out to be 4.01 µM; in the assay with BT-549 breast, 18.4 µM; with NCI/ADR-RES ovarian it was 13.5 µM; in the assay on OVCAR-5 ovarian, 25 µM.

Take `C#C[C@]1(O)CC[C@H]2[C@@H]3CC=C4c5nc(Nc6ccc(OC)cc6OC)sc5CC[C@]4(C)[C@H]3CC[C@@]21C`: the GI50 in the assay with M14 melanoma was 1.37 µM; in the assay on NCI-H226 lung it was 2.3 µM; in the assay on EKVX NSCLC, 2.66 µM; in the assay with LOX IMVI melanoma, 1.45 µM; with OVCAR-8 ovarian, 3.2 µM; in the assay on SK-MEL-28 melanoma, 0.712 µM. Further, the GI50 in the assay with NCI-H522 lung was 2.22 µM; with BT-549 breast it was 0.656 µM; in the assay on NCI/ADR-RES ovarian, 2.36 µM; in the assay on OVCAR-5 ovarian, 2.53 µM. Besides, the TGI in the assay on M14 melanoma is 3.53 µM; with NCI-H226 lung, 6.23 µM; with EKVX NSCLC, 17.8 µM; with LOX IMVI melanoma, 2.97 µM; in the assay with OVCAR-8 ovarian it was above 100 µM; in the assay on SK-MEL-28 melanoma, 2.7 µM. The TGI in the assay with NCI-H522 lung was 5.79 µM; in the assay with BT-549 breast it was 4.77 µM; with NCI/ADR-RES ovarian, 17 µM; in the assay with OVCAR-5 ovarian, 12.2 µM.

`NC(=O)c1c(OCc2c(F)cc(Br)cc2F)nsc1NC(=O)NCCCCN1CCCC1`: the GI50 in the assay with M14 melanoma was 1.6 µM; in the assay on NCI-H226 lung, 0.453 µM; in the assay on EKVX NSCLC it was above 10 µM; in the assay on LOX IMVI melanoma, 1.16 µM; with OVCAR-8 ovarian, 4 µM; in the assay with SK-MEL-28 melanoma it was 1.71 µM. Further, the GI50 with NCI-H522 lung is 1.83 µM; in the assay on BT-549 breast, 6.64 µM; in the assay with NCI/ADR-RES ovarian, 5.82 µM; in the assay on OVCAR-5 ovarian, 3.1 µM. For the same molecule, the TGI with M14 melanoma was 3.46 µM; in the assay on NCI-H226 lung, above 10 µM; with EKVX NSCLC, above 10 µM; in the assay on LOX IMVI melanoma it was 2.5 µM; in the assay on OVCAR-8 ovarian it was above 10 µM; in the assay on SK-MEL-28 melanoma, 3.35 µM. Moreover, the TGI with NCI-H522 lung was 5.32 µM; in the assay on BT-549 breast it was above 10 µM; in the assay with NCI/ADR-RES ovarian it was above 10 µM; with OVCAR-5 ovarian it was above 10 µM.

Take `NC(N)=NC(N)=NCCc1ccccc1`: the GI50 with M14 melanoma was above 100 µM; in the assay with NCI-H226 lung it was above 100 µM; in the assay on EKVX NSCLC it was 6.79 µM and 7.74 µM; in the assay on LOX IMVI melanoma, above 100 µM; in the assay with OVCAR-8 ovarian, above 100 µM; in the assay with SK-MEL-28 melanoma it was above 100 µM. In addition, the GI50 with NCI-H522 lung is 44.7 µM and > 100 µM; with BT-549 breast it was > 100 µM and 32.8 µM; in the assay with NCI/ADR-RES ovarian, above 100 µM; in the assay on OVCAR-5 ovarian, above 100 µM. Besides, the TGI in the assay with M14 melanoma, in the assay with NCI-H226 lung, in the assay with EKVX NSCLC, with LOX IMVI melanoma, with OVCAR-8 ovarian and in the assay with SK-MEL-28 melanoma was above 100 µM in each case. Also, the TGI with NCI-H522 lung, in the assay with BT-549 breast, with NCI/ADR-RES ovarian and in the assay with OVCAR-5 ovarian was above 100 µM each time.
